Assay results published in patent publication US12139768B2, “Polymerase chain reaction primers and probes for Mycobacterium tuberculosis” (Rutgers, The State University of New Jersey, priority 2014, dated 2024).
Where two headings read alike, the source gives them in different places.

What was measured:
M.tb isolates [1] = format: cell-based, Mycobacterium tuberculosis
M.tb isolates [2] = format: cell-based, Mycobacterium tuberculosis; remark: listed apart in the source
eis promoter region = format: binding; conditions: clinical DNA
rrs gene = format: binding; conditions: clinical DNA
[3] = eis promoter G(−10)A + NM (mixed)
[4] = rrs-A1401G + eis C(−14)T double mutant

In the case of `NC[C@H]1O[C@H](O[C@H]2[C@H](O)[C@@H](O[C@H]3O[C@H](CO)[C@@H](O)[C@H](N)[C@H]3O)[C@H](N)C[C@@H]2N)[C@H](O)[C@@H](O)[C@@H]1O` [KAN, Kanamycin], the “Susceptibility (LJ)” value (M.tb isolates [1]) is reported as “S and R”, the “Total number of isolates Susceptible (LJ)” value (M.tb isolates [1]) is reported as 497 and the “Susceptibility (MGIT)” value (M.tb isolates [2]) is reported as “R and S”. The “Total number of isolates Susceptible (MGIT)” value (M.tb isolates [2]) was 447.

For “ctcgcGGCATATGCCACAGTCGGATTCTcTGACgcgag (DNA CTCGCGGCATATGCCACAGTCGGATTCTCTGACGCGAG; molecular beacon, labels not given here, further chemistry not given here) [eis-2, SMB probe targeted against the eis promoter region]”, the “Mean Tm” value (eis promoter region; No mutation (NM), wild type) was 69 °C, the “Mean Tm” value (eis promoter region; No mutation (NM), wild type, listed as eis2) was 69.00 °C and the “Mean Tm” value (eis promoter region; eis promoter C(−8) deletion) was 63.10 °C. For the same compound, the “dTm (Tm difference of mutant from wild type)” value (eis promoter region; eis promoter C(−8) deletion) was 5.90 °C, the “Mean Tm” value (eis promoter region; eis promoter C(−12)T) was 62.92 °C and the “dTm (Tm difference of mutant from wild type)” value (eis promoter region; eis promoter C(−12)T) was 6.08 °C. For the same compound, the “Mean Tm” value (eis promoter region; eis promoter C(−14)T) was 62.60 °C, the “dTm (Tm difference of mutant from wild type)” value (eis promoter region; eis promoter C(−14)T) was 6.40 °C and the “Mean Tm” value (eis promoter region; eis promoter G(−10)A) was 64.70 °C. For the same compound, the “dTm (Tm difference of mutant from wild type)” value (eis promoter region; eis promoter G(−10)A) was 4.30 °C, the “dTm (Tm difference of mutant from wild type)” value (eis promoter region; [3]) was 4.20 °C and the “Mean Tm” value (eis promoter region; eis promoter G(−10)A + NM (mixed, double Tm peak for eis2)) was 64.80-69.10 °C. For the same compound, the “Mean Tm” value (eis promoter region; eis promoter G(−37)T) was 69.10 °C, the “dTm (Tm difference of mutant from wild type)” value (eis promoter region; eis promoter G(−37)T) was −0.10 °C and the “Mean Tm” value (eis promoter region; rrs gene A1401G) was 69.10 °C. The “dTm (Tm difference of mutant from wild type)” value (eis promoter region; rrs gene A1401G) was −0.10 °C, the “Mean Tm” value (eis promoter region; rrs gene A1401G + NM (mixed)) was 69.10 °C and the “dTm (Tm difference of mutant from wild type)” value (eis promoter region; rrs gene A1401G + NM (mixed)) was −0.10 °C. For the same compound, the “Mean Tm” value (eis promoter region; rrs gene C1402T + NM (mixed)) was 69.20 °C, the “dTm (Tm difference of mutant from wild type)” value (eis promoter region; rrs gene C1402T + NM (mixed)) was −0.20 °C and the “Mean Tm” value (eis promoter region; [4]) was 62.50 °C. The “dTm (Tm difference of mutant from wild type)” value (eis promoter region; [4]) was 6.50 °C.

“cacgACCGCCCGTCACGTCATGAAAGTCGGTcgtg (DNA CACGACCGCCCGTCACGTCATGAAAGTCGGTCGTG; molecular beacon, labels not given here, further chemistry not given here) [rrs-1400, SMB probe targeted against the rrs gene]” was tested, and the “Mean Tm” value (rrs gene; No mutation (NM), wild type) was 70.1 °C, the “Mean Tm” value (rrs gene; eis promoter C(−8) deletion) was 70.10 °C and the “dTm (Tm difference of mutant from wild type)” value (rrs gene; eis promoter C(−8) deletion) was 0.00 °C. The “Mean Tm” value (rrs gene; eis promoter C(−12)T) was 70.15 °C, the “dTm (Tm difference of mutant from wild type)” value (rrs gene; eis promoter C(−12)T) was −0.05 °C and the “Mean Tm” value (rrs gene; eis promoter C(−14)T) was 70.10 °C. For the same compound, the “dTm (Tm difference of mutant from wild type)” value (rrs gene; eis promoter C(−14)T) was 0.00 °C, the “Mean Tm” value (rrs gene; eis promoter G(−10)A) was 70.20 °C and the “dTm (Tm difference of mutant from wild type)” value (rrs gene; eis promoter G(−10)A) was −0.10 °C. For the same compound, the “Mean Tm” value (rrs gene; [3]) was 70.20 °C, the “dTm (Tm difference of mutant from wild type)” value (rrs gene; [3]) was −0.10 °C and the “Mean Tm” value (rrs gene; eis promoter G(−37)T) was 70.20 °C. The “dTm (Tm difference of mutant from wild type)” value (rrs gene; eis promoter G(−37)T) was −0.10 °C, the “Mean Tm” value (rrs gene; rrs gene A1401G) was 66.20 °C and the “dTm (Tm difference of mutant from wild type)” value (rrs gene; rrs gene A1401G) was 3.9 °C. For the same compound, the “dTm (Tm difference of mutant from wild type)” value (rrs gene; rrs gene A1401G + NM (mixed)) was 3.90 °C, the “Mean Tm” value (rrs gene; rrs gene A1401G + NM (mixed, double Tm peak)) was 66.20-70.10 °C and the “dTm (Tm difference of mutant from wild type)” value (rrs gene; rrs gene C1402T + NM (mixed)) was 5.6 °C. For the same compound, the “Mean Tm” value (rrs gene; rrs gene C1402T + NM (mixed, double Tm peak)) was 64.50-70.10 °C, the “Mean Tm” value (rrs gene; [4]) was 66.30 °C and the “dTm (Tm difference of mutant from wild type)” value (rrs gene; [4]) was 3.80 °C.

With `NCC[C@H](O)C(=O)N[C@@H]1C[C@H](N)[C@@H](O[C@H]2O[C@H](CN)[C@@H](O)[C@H](O)[C@H]2O)[C@H](O)[C@H]1O[C@H]1O[C@H](CO)[C@@H](O)[C@H](N)[C@H]1O` [AMK, Amikacin] the “Susceptibility (LJ)” value (M.tb isolates [1]) was “S and R” and the “Total number of isolates Susceptible (LJ)” value (M.tb isolates [1]) was 513.
